This note sets out measurements from patent publication US20240246960A1 (adMare Therapeutics Society, priority 2021, published 2024).

One assay has as its target T1, DNA-PK (Homo sapiens, UniProt P78527).
T1 construct: purchased Invitrogen PR9107A
The experiment in a line: DNA-PK Assay for Biochemical Enzymatic Inhibition (ADP Glo Kinase assay). As to the method:
A biochemical assay was performed to identify IC50 values against DNA-PK activity in a two-step reaction with a kinase reaction followed by ADP Glo™ Kinase assay Kit (Promega V9102).
Three-fold serial dilutions of compounds in DMSO were prepared in kinase assay buffer (50 mM HEPES pH 7.5, 20 mM MgCl2, 100 mM KCl, 50 μM DTT, 10 μg/ml calf thymus DNA, 0.01% Tween 20). Kinase assay buffer was used to prepare compound treatments to 0.02% DMSO (dimethyl sulphoxide) content. DMSO controls were prepared to produce a maximum and minimum luminescence signal for normalization. Substrate (Anaspec, AS-60210-5) and ATP (Promega V9102) and ATP mix was prepared by dilution in kinase assay buffer for 434.4 μM and 64.4 μM final assay concentrations, respectively. Compounds and control were added to 25 ng DNA-PK enzyme (Invitrogen, PR9107A) diluted in kinase buffer in assay plate (Corning 267459) and incubated for 15 minutes at room temperature prior to addition of substrate and ATP mix.
Throughout the assay, each time a reagent was added to the microplate, it was centrifuged for 1 minute at 1300 rcf. All reagents were added, and incubations carried out at room temperature. The reaction was then incubated for 60 minutes. ADP-ATP standards at 0, 4, 10, 40, 80, and 100% ADP (prepared as specified in the ADP Glo™ Kinase assay kit) were also added to the microplate at a volume equal to the total kinase reaction. The ADP Glo™ Kinase Assay kit was then used to quantify DNA-PK activity: following the 60-minute incubation, a 1:1 volume of ADP Glo reagent was added to all wells, then following a further 45-minute incubation, a 1:1 volume of Kinase Detection Reagent was added to all wells. After this two-step assay, plates were incubated in a Synergy-Neo2 plate reader for 30 minutes with gentle shaking, followed by endpoint luminescent read Luminescence data was normalized by subtracting the background signal and expressing all background-adjusted values as a percentage of the average maximum signal. The data was then expressed as percent inhibition by subtracting from 100% (i.e. maximum luminescent signal will be 0% inhibition) and the resulting data plotted against ten concentration points on a logarithmic scale, using GraphPad Prism. Non-linear regression analysis was performed on each concentration response curve and the log [inhibitor] vs response—variable slope (four parameters) equation was selected to generate IC50 values.

The target in assay [1] is T2, DNA-PK phosphorylation at Serine 2056 (Homo sapiens, UniProt P78527).
T2 construct: host or cells: FaDu
Nature of the assay: Cellular Assay for Inhibition of DNA-PK Phosphorylation at Serine 2056 (FaDu cells, neocarzinostatin, sandwich ELISA). Type of assay: cell-based. As to the method: FaDu cells were purchased from ATCC and maintained in MEM alpha medium (Life Technologies, cat. no. 12561) supplemented with 10% fetal bovine serum, and 1% GlutaMAX at 37° C. supplemented with 5% CO2. 50,000 cells were seeded to each well of a 96-well cell culture plate in 50 μL of culture medium and incubated for 16-24 hours. Three-fold serially diluted compounds were prepared in DMSO. Culture media was used to prepare compound treatments to 0.3% DMSO (dimethyl sulphoxide) content. Compound treatments were added to the cells for 1 hour prior incubation, followed by the addition of neocarzinostatin in fresh culture medium to 1 μg/mL final concentration for an additional 2 hours incubation to induce DNA DSBs (double-strand breaks). DMSO controls were incubated with fresh culture medium alone for the additional two hours incubation. The cells were then lysed and frozen at −20° C. Cell lysates were thawed on wet ice and protein concentrations quantified by BCA Protein Assay (Thermo # 23225). Lysis buffer was used to normalize lysates by protein content and all lysates were then investigated by sandwich ELISA by means of DNA-PK-specific antibodies (Abcam ab44815: total DNA-PK; ab124918: phosphoserine-2056 DNA-PK) in sandwich ELISA format on the MSD S600MM platform (MesoScale Discovery). % inhibition was calculated for all data points: =1−(DATA_PT−AVERAGE(DMSO controls))/(AVERAGE(NCS controls)−AVERAGE(DMSO controls)). Logarithm of the molar concentration of compound was plotted against percent inhibition to calculate IC50 values, with curve fit settings for data fit to log(inhibitor) vs. normalized response—Variable slope using curve fit software (GraphPad Prism).
Background: In an ELISA, binding on a coated surface is turned into a signal by an enzyme label.

By IC50 is commonly meant the concentration needed to halve the response being measured.

As to `Cn1cc([C@H]2CC[C@H](Oc3nc(N4CCOCC4)cc4ncc(Br)cc34)CC2)cn1` [Compound 3b, 4-(3-bromo-5-(((1r,4r)-4-(1-methyl-1H-pyrazol-4-yl)cyclohexyl)oxy)-1,6-naphthyridin-7-yl)morpholine], the IC50 at DNA-PK (Table 1) lay within 0.01 to 0.15 µM.
As for `Cn1cc([C@H]2CC[C@@H](Oc3nc(N4CCOCC4)cc4ncc(O)cc34)CC2)cn1` [Compound 4b, 5-(((1r,4r)-4-(1-methyl-1H-pyrazol-4-yl)cyclohexyl)oxy)-7-morpholino-1,6-naphthyridin-3-ol], the 50% inhibitory concentration (IC50) on DNA-PK (Table 1) was 0.01 to 0.15 µM.
As for `FC(F)(F)c1ccn([C@H]2CC[C@@H](Oc3nc(N4CCOCC4)cc4ncccc34)CC2)n1` [Compound 17c, 4-(5-(((1s,4s)-4-(3-(trifluoromethyl)-1H-pyrazol-1-yl)cyclohexyl)oxy)-1,6-naphthyridin-7-yl)morpholine], the IC50 on DNA-PK (Table 1) was 0.01 to 0.15 µM.
On to `FC(F)(F)c1ccnn1[C@H]1CC[C@@H](Oc2nc(N3CCOCC3)cc3ncccc23)CC1` [Compound 17d, 4-(5-(((1s,4s)-4-(5-(trifluoromethyl)-1H-pyrazol-1-yl)cyclohexyl)oxy)-1,6-naphthyridin-7-yl)morpholine], for which the IC50 was in the range of 0.001 to 0.01 µM at DNA-PK (Table 1) and 0.1 to 1 µM in assay [1] (Table 1).
For the compound `COc1cnc(N[C@H]2CC[C@@H](Oc3nc(N4CCOCC4)cc4ncc(Br)cc34)CC2)nc1` [Compound 18c, N-((1s,4s)-4-((3-Bromo-7-morpholino-1,6-naphthyridin-5-yl)oxy)cyclohexyl)-5-methoxypyrimidin-2-amine], the IC50 on DNA-PK (Table 1) fell in the range of 0.01 to 0.15 µM.
Turning to `Cc1nccc(N[C@H]2CC[C@@H](Oc3nc(N4CCOCC4)cc4ncccc34)CC2)n1` [Compound 37, 2-methyl-N-((1s,4s)-4-((7-morpholino-1,6-naphthyridin-5-yl)oxy)cyclohexyl)pyrimidin-4-amine], the IC50 on DNA-PK (Table 1) is below 0.0005 µM; in assay [1] (Table 1) it was 0.1 to 1 µM.
Regarding `CCOC(=O)N[C@H]1CC[C@@H](Oc2nc(N3CCOCC3)cc3ncccc23)CC1` [Compound 104, Ethyl ((1s,4s)-4-((7-morpholino-1,6-naphthyridin-5-yl)oxy)cyclohexyl)carbamate], the IC50 on DNA-PK (Table 1) is 0.01 to 0.15 µM.
Turning to `O=C(N[C@H]1CC[C@@H](Oc2nc(N3CCOCC3)cc3ncccc23)CC1)c1cncnc1C(F)(F)F` [Compound 130, N-((1s,4s)-4-((7-morpholino-1,6-naphthyridin-5-yl)oxy)cyclohexyl)-4-(trifluoromethyl)pyrimidine-5-carboxamide], at DNA-PK (Table 1), the IC50 lay within 0.01 to 0.15 µM.
On to `O=S(=O)(N[C@H]1CC[C@@H](Oc2nc(N3CCOCC3)cc3ncccc23)CC1)c1ccccc1` [Compound 147, N-((1s,4s)-4-((7-Morpholino-1,6-naphthyridin-5-yl)oxy)cyclohexyl)benzenesulfonamide], for which, on DNA-PK (Table 1), the half-inhibitory concentration (IC50) was 0.01 to 0.15 µM.
As for `O=S(=O)(N[C@H]1CC[C@@H](Oc2nc(N3CCOCC3)cc3ncccc23)CC1)c1ccc(F)cc1` [Compound 148, 4-Fluoro-N-((1s,4s)-4-((7-morpholino-1,6-naphthyridin-5-yl)oxy)cyclohexyl)benzenesulfonamide], the IC50 at DNA-PK (Table 1) lay in the range of 0.01 to 0.15 µM.
For the compound `COc1ccc(S(=O)(=O)N[C@H]2CC[C@@H](Oc3nc(N4CCOCC4)cc4ncccc34)CC2)cc1` [Compound 149, 4-Methoxy-N-((1s,4s)-4-((7-morpholino-1,6-naphthyridin-5-yl)oxy)cyclohexyl)benzenesulfonamide], the IC50 at DNA-PK (Table 1) fell in the range of 0.01 to 0.15 µM.
As for `O=C([C@H]1CC[C@@H](Oc2nc(N3CCOCC3)cc3ncccc23)CC1)N1CCOCC1` [Compound 154a, morpholino((1S,4S)-4-((7-morpholino-1,6-naphthyridin-5-yl)oxy)cyclohexyl)methanone], the IC50 on DNA-PK (Table 1) lay in the range of 0.01 to 0.15 µM.
Regarding `CN1CCN(C(=O)[C@H]2CC[C@@H](Oc3nc(N4CCOCC4)cc4ncccc34)CC2)CC1` [Compound 154d, (4-methylpiperazin-1-yl)((1S,4S)-4-((7-morpholino-1,6-naphthyridin-5-yl)oxy)cyclohexyl)methanone], the IC50 at DNA-PK (Table 1) fell in the range of 0.01 to 0.15 µM.
As to `c1ccc(CN[C@H]2CC[C@@H](Oc3nc(N4CCOCC4)cc4ncccc34)CC2)cc1` [Compound 155, (1s,4s)-N-benzyl-4-((7-morpholino-1,6-naphthyridin-5-yl)oxy)cyclohexan-1-amine], the IC50 at DNA-PK (Table 1) was in the range of 0.01 to 0.15 µM; in assay [1] (Table 1), 10 to 30 µM.
Turning to `CC(=O)Nc1cnc2cc(N3CCOCC3)nc(O[C@H]3CC[C@@H](n4ccnc4)CC3)c2c1` [Compound 162, N-(5-(((1s,4s)-4-(1H-imidazol-1-yl)cyclohexyl)oxy)-7-morpholino-1,6-naphthyridin-3-yl)acetamide], the IC50 at DNA-PK (Table 1) was 0.01 to 0.15 µM.
Regarding `CN(c1cnc2cc(N3CCOCC3)nc(O[C@H]3CC[C@@H](N(C)c4ncccn4)CC3)c2c1)S(C)(=O)=O` [Compound 199, N-methyl-N-(5-(((1s,4s)-4-(methyl(pyrimidin-2-yl)amino)cyclohexyl)oxy)-7-morpholino-1,6-naphthyridin-3-yl)methanesulfonamide], the half-inhibitory concentration (IC50) on DNA-PK (Table 1) was in the range of 0.01 to 0.15 µM.
As to `CS(=O)(=O)Nc1cnc2cc(N3CCOCC3)nc(O[C@H]3CC[C@@H](Nc4ncc(C(N)=O)cn4)CC3)c2c1` [LFA028, 2-[[4-[[3-(Methanesulfonamido)-7-morpholino-1,6-naphthyridin-5-yl]oxy]cyclohexyl]amino]pyrimidine-5-carboxamide], the figures for the IC50 (at DNA-PK (Table 2); in assay [1] (Table 2)) were 0.0005 to 0.001 µM and 1 to 10 µM, respectively.
Consider `CNC(=O)c1cnc(N[C@H]2CC[C@@H](Oc3nc(N4CCOCC4)cc4ncc(NS(C)(=O)=O)cc34)CC2)nc1` [LFA029, 2-[[4-[[3-(Methanesulfonamido)-7-morpholino-1,6-naphthyridin-5-yl]oxy]cyclohexyl]amino]-N-methyl-pyrimidine-5-carboxamide], for which the IC50 on DNA-PK (Table 2) is below 0.0005 µM; in assay [1] (Table 2) it was 0.1 to 1 µM.
The compound `CS(=O)(=O)Nc1cnc2cc(N3CCOCC3)nc(O[C@H]3CC[C@@H](n4cc(F)cn4)CC3)c2c1` [LFA1061, N-[5-[4-(4-fluoropyrazol-1-yl)cyclohexoxy]-7-morpholino-1,6-naphthyridin-3-yl]methanesulfonamide] gave an IC50 in assay [1] (Table 3) below 0.1 µM.
In turn, `Cn1cc([C@H]2CC[C@@H](Oc3nc(N4CCOCC4)cc4ncc(NS(C)(=O)=O)cc34)CC2)cn1` [LFA1062, N-[5-[4-(1-methylpyrazol-4-yl)cyclohexoxy]-7-morpholino-1,6-naphthyridin-3-yl]methanesulfonamide] displayed an IC50 in assay [1] (Table 3) of 0.1 to 1 µM.
Still for that read-out and setting: then `Cn1cc([C@H]2CC[C@H](Oc3nc(N4CCOCC4)cc4ncc(NS(C)(=O)=O)cc34)CC2)cn1` [LFA1063, N-[5-[4-(1-methylpyrazol-4-yl)cyclohexoxy]-7-morpholino-1,6-naphthyridin-3-yl]methanesulfonamide], with 10 to 30 µM; and `CS(=O)(=O)Nc1cnc2cc(N3CCOCC3)nc(O[C@H]3CC[C@@H](c4cnccn4)CC3)c2c1` [LFA1064, N-[7-morpholino-5-(4-pyrazin-2-ylcyclohexoxy)-1,6-naphthyridin-3-yl]methanesulfonamide], with 0.1 to 1 µM; and `Oc1cnc2cc(N3CCOCC3)nc(O[C@H]3CC[C@@H](c4cnccn4)CC3)c2c1` [LFA1065, 7-morpholino-5-(4-pyrazin-2-ylcyclohexoxy)-1,6-naphthyridin-3-ol], with below 0.1 µM.
“N-[5-[4-[(4,6-dimethylpyrimidin-2-yl)amino]cyclohexoxy]-7-morpholino-1,6-naphthyridin-3-yl]methanesulfonamide;2,2,2-trifluoroacetic acid [LFA1046]”: in assay [1] (Table 3), the concentration for half-maximal inhibition (IC50) lay in the range of 0.1 to 1 µM.
